Measurements reported in patent publication US20060275356A1, “Pharmaceutical compositions for treating or preventing coronary artery disease” (priority 2005, published 2006).
Read-outs that look alike come from different tables or passages of the source.

What was measured:
HepG2 cells = details: cited from earlier work
plasma apoA-I levels = test: Plasma apoA-I levels after two weeks of PI plus absorption enhancer (western immunoblotting); format: in vivo, Sprague Dawley rats; details: 60 mg/kg PI combined with the absorption enhancer (dose per Table 1), rats
Protocol: Individual absorption enhancers were also incorporated into the 2 g bolus dose (Table 1). […] All animals were maintained on this regime for two weeks, at which time animals were euthanized and blood samples collected by cardiac puncture. Blood samples were collected into EDTA coated tubes, placed on ice, followed by centrifugation at 1500×g for 15 min at 4° C. to separate plasma. Plasma samples were stored at −20° C. until analysis of apoA-I could be performed. Plasma apoA-I levels were determined by western immunoblotting.

HDL-C cholesterol = details: 5.5% by weight of rat chow, approximately 4 g/Kg body weight; cited from earlier work
[1] = Effect of bile acids on absorption and transport of 3H-PI to the liver; format: in vivo, Sprague Dawley rats; details: 120 mg/kg 3H-PI by gavage with 50 mg/kg bile acid; liver 4 hours post-gavage
Protocol: Pharmacokinetic studies were performed to determine if specific bile acids increase the absorption and transport of phosphatidylinositol (PI) to the liver. Sprague Dawley rats (300-350 g) were fasted overnight, followed by administration of 120 mg/kg ^3H-PI by gavage. 50 mg/kg of the bile acids deoxycholate or glycocholate were also incorporated into the gavage. Animals were euthanized after 4 hours post-gavage at which time liver samples were harvested. PI was extracted from the liver samples using the acidic Bligh and Dyer extraction method (Bligh, E. G.; Dyer, W. J. Can. J. Biochem. vol. 37: 911-917, 1959 and Honeyman, T. W. et al., Biochem J. vol. 212: 489-498, 1983). Radioactivity present in the organic phase was measured to determine the amount of PI that was transported to the liver.

plasma HDL-C and apoA-I = test: Oral PI in conventional formulations: increase in plasma HDL-C and apoA-I; format: in vivo; details: oral PI about 5.6 g/day
[2] = two pilot studies, children aged 4-19 years; cited from earlier work

CC(C)c1c(C(=O)Nc2ccccc2)c(-c2ccccc2)c(-c2ccc(F)cc2)n1CC[C@@H](O)C[C@@H](O)CC(=O)O [atorvastatin, reference compound]
inhibition of cholesterol synthesis (HepG2 cells; concentrations between 0.01 to 10 μM): 45-65%

C[C@H](CCC(=O)O)[C@H]1CC[C@H]2[C@@H]3[C@H](O)C[C@@H]4C[C@H](O)CC[C@]4(C)[C@H]3CC[C@]12C [chenodeoxycholate]
increase in plasma apoA-I relative to PI alone (plasma apoA-I levels): 2 fold

C[C@H](CCC(=O)NCC(=O)O)[C@H]1CC[C@H]2[C@@H]3[C@H](O)C[C@@H]4C[C@H](O)CC[C@]4(C)[C@H]3C[C@H](O)[C@]12C [glycocholate]
increase in plasma apoA-I relative to PI alone (plasma apoA-I levels): 6.6 fold

CCCCCCCCCCCC(=O)[O-].[Na+] [sodium laurate]
increase in plasma apoA-I relative to PI alone (plasma apoA-I levels): 3.7 fold

CCCCCCCCCCCCOS(=O)(=O)[O-].[Na+] [sodium lauryl sulfate]
increase in plasma apoA-I relative to PI alone (plasma apoA-I levels): 7.7 fold

Bromelain
increase in plasma apoA-I relative to PI alone (plasma apoA-I levels): 5.4 fold

Phosphatidic acid [Phosphatidic acid (PA)]
increase of HDL-C cholesterol (HDL-C cholesterol): about 2 fold

deoxycholate
increase of transport of PI to the liver [1]: 20%
increase in plasma apoA-I relative to PI alone (plasma apoA-I levels): 2 fold

phosphatidylinositol [PI]
increase in plasma HDL-C (plasma HDL-C and apoA-I): ~20%
increase in plasma apoA-I (plasma HDL-C and apoA-I): ~10%
inhibition of cholesterol synthesis (HepG2 cells; concentration of 11.7 μM): 50%

phosphatidylserine [PS]
children with improved attention, behavior, learning performance and ameliorated negative mood [2]: 15 out of 20
